Our source for the TR-FRET signal values is patent US20240246941A1, “SUBSTITUTED 4-(3-AMINOPROP-1-YL)AMINOQUINOLINE ANALOGS AS MODULATORS OF MELANOMA-ASSOCIATED ANTIGEN 11 UBIQUITIN LIGASE” (ST. JUDE CHILDREN'S RESEARCH HOSPITAL, INC., priority 2020, published 2024).

Structures are written as SMILES.

MAGE-A11:PCF11, sequence (P43364 218-429): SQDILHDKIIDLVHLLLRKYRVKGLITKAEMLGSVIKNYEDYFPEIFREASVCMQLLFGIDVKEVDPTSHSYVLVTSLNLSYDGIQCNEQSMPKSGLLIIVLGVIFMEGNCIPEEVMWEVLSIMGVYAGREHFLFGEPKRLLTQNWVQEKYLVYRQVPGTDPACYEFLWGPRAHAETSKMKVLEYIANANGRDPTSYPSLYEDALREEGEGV

The first experiment concerns the target MAGE-A11:PCF11 (Homo sapiens (Human), UniProt P43364). As to the kind of experiment: TR-FRET single point screening at 15 μM. Conditions: single point TR-FRET screening at 15 μM against MAGE-A11:PCF11. The format is binding. More on the design: unit not given here. The method, boiled down:
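Competition TR-FRET: compounds at final 15 μM mixed with 200 nM FAM-PCF11_4, 5 nM GST-MAGEA11 and 5 nM Tb-anti-GST in Tris pH 7.5/MgCl2/BSA/DTT buffer, room temperature, 90 min. Emission ratio 520/490 nm (340 nm excitation) expressed as % inhibition relative to positive and negative controls.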
`COc1ccccc1N1CCN(c2c(S(=O)(=O)c3ccc(Cl)cc3)cnc3ccc(C)cc23)CC1` [SJ000117070]: the TR-FRET signal is on record as −15.37.

As to `CCc1nc2ccccc2c(NC(=O)CN2CCCCC2)c1C` [SJ000111682], the TR-FRET signal turned out to be 1.593.

`Clc1ccc2c(NCCCCN(Cc3ccccc3)Cc3ccc4c(c3)OCO4)ccnc2c1` [SJ000522723] came in with a TR-FRET signal of 16.51.

The compound `CCCN(CCCCNc1ccnc2cc(Cl)ccc12)Cc1sccc1C` [SJ000311199] returned a TR-FRET signal of 6.494.

As for `COc1cccc(F)c1CN1CCC(Nc2ccnc3cc(Cl)ccc23)CC1` [SJ000357498], the TR-FRET signal was found to be 10.5.

The compound `COc1ccc(O)c(CN2CCC(Nc3ccnc4cc(Cl)ccc34)CC2)c1` [SJ000357527] returned a TR-FRET signal of 7.779.

Regarding `CCCCCCN(CCC)CCCNc1c2ccc(Cl)cc2nc2ccc(OC)cc12` [SJ000520963], the TR-FRET signal is recorded as −153.7.

In the case of `Cc1ccc(S(=O)(=O)c2cnc3ccccc3c2N2CCN(c3ccc(F)cc3)CC2)cc1` [SJ000117057], the TR-FRET signal is reported as −20.61.

On to `Clc1ccc2c(N3CCN(CCCN4CCN(c5ccnc6cc(Cl)ccc56)CC4)CC3)ccnc2c1` [SJ000518980], for which the TR-FRET signal is recorded as −2.989.

Regarding `CCCN(CCCNc1c2ccc(Cl)cc2nc2ccc(OC)cc12)Cc1ccc([N+](=O)[O-])o1` [SJ000523022], the TR-FRET signal is −329.7.

`Cc1cc(N2CCN(CC(O)COCC(C)C)CC2)c2ccccc2n1` (centres unmarked) [SJ000227654] displayed a TR-FRET signal of −3.251.

The compound `CCOC(=O)c1cnc2ccc(C)cc2c1NCCN1CCOCC1` [SJ000027268] came in with a TR-FRET signal of −0.3915.

Consider `CCc1ccc2ncc(S(=O)(=O)c3ccc(OC)cc3)c(N3CCN(C)CC3)c2c1` [SJ000083954], for which the TR-FRET signal was −5.969.

As to `CCOc1ccc2ncc(S(=O)(=O)c3ccccc3)c(N3CCN(c4ccccc4)CC3)c2c1` [SJ000083975], the TR-FRET signal is on record as −12.06.

With `CCCCCN(CCC)CCCNc1c2ccc(Cl)cc2nc2ccc(OC)cc12` [SJ000520941], the TR-FRET signal is −210.3.

In turn, `CCCN(CCCNc1c2ccc(Cl)cc2nc2ccc(OC)cc12)Cc1cnn(C)c1` [SJ000522980] returned a TR-FRET signal of −276.6.

Turning to `CCOC(=O)c1cnc2c(C)cc(Cl)cc2c1NCCN1CCOCC1` [SJ000129560], the TR-FRET signal stood at 4.96.

The compound `CCc1ccc2ncc(S(=O)(=O)c3ccc(C)cc3)c(N3CCN(CC)CC3)c2c1` [SJ000083962] had a TR-FRET signal of 2.377.

Take `Clc1ccc2c(NCCCCN(CCc3ccccc3)Cc3ccccc3)ccnc2c1` [SJ000361211]: the TR-FRET signal was 23.38.

`CCCN(CCCNc1c2ccc(Cl)cc2nc2ccc(OC)cc12)Cc1ccc(-c2ccccc2[N+](=O)[O-])o1` [SJ000523019] registered a TR-FRET signal of −102.8.

With `COc1ccc2ncc(S(=O)(=O)c3ccccc3)c(N3CCN(c4ccc(F)cc4)CC3)c2c1` [SJ000083978], the TR-FRET signal is listed as −133.1.

The compound `Cc1cccc(CN2CCC(Nc3ccnc4cc(Cl)ccc34)CC2)c1` [SJ000523101] displayed a TR-FRET signal of 18.54.

`Cc1ccc(S(=O)(=O)c2cnc3ccc(Cl)cc3c2N2CCN(c3ccccc3)CC2)cc1` [SJ000117050] showed a TR-FRET signal of −3.321.

Compound `O=C(C[C@H]1CC[C@]2(CC1)OO[C@]1(O2)C2CC3CC(C2)CC1C3)NCCCCNc1ccnc2cc(Cl)ccc12` [SJ000578384] came in with a TR-FRET signal of 25.12.

`CCCN(CCCCNc1ccnc2cc(Cl)ccc12)Cc1c[nH]c2ccccc12` [SJ000311204] returned a TR-FRET signal of −3.378.

Regarding `Cc1ccc(S(=O)(=O)N2CCN(c3ccnc4cc(Cl)ccc34)CC2)cc1` [SJ000192519], the TR-FRET signal is on record as −38.7.

`COc1ccc(CN2CCC(Nc3ccnc4cc(Cl)ccc34)CC2)cc1OC` [SJ000523103] gave a TR-FRET signal of 11.75.

With `Clc1ccc2c(NCCCCN(Cc3ccccc3)CC3CCCCC3)ccnc2c1` [SJ000361194], the TR-FRET signal is 41.93.

For the compound `CCCN(CCCNc1c2ccc(Cl)cc2nc2ccc(OC)cc12)Cc1nccn1C` [SJ000522973], the TR-FRET signal was −159.9.

`CCOC(=O)c1cnc2c(C)cc(C)cc2c1NCCN1CCOCC1` [SJ000172983] came in with a TR-FRET signal of 8.869.

For `CCCCCCN(CCCCNc1ccnc2cc(Cl)ccc12)Cc1ccccc1` [SJ000361212], the TR-FRET signal is 23.58.

With `CCOc1ccc2ncc(C(=O)c3ccc(OC)cc3)c(N3CCN(C)CC3)c2c1` [SJ000247277], the TR-FRET signal is recorded as −18.95.

Still in this experiment, the particulars now being: single point TR-FRET screening of quinoline compounds against MAGE-A11:PCF11; 15 μM.
The compound `Clc1ccc2c(NCCCN(Cc3ccccc3)Cc3ccoc3)ccnc2c1` [SJ000361170] had a TR-FRET signal of 12.84.

Turning to `CCCN(CCCNc1ccnc2cc(C(F)(F)F)ccc12)Cc1cccnc1Br` [SJ000575180], the TR-FRET signal worked out at 5.164.

Regarding `Clc1ccc2c(NCCCN(Cc3ccccc3)Cc3ccco3)ccnc2c1` [SJ000312668], the TR-FRET signal stood at 0.5217.

`CC(C)(C)CCN(CCCNc1ccnc2cc(Cl)ccc12)Cc1ccccc1` [SJ000357578]: the TR-FRET signal is on record as 25.69.

For the compound `CCCN(CCCNc1ccnc2cc(Cl)ccc12)Cc1cccc(C(F)(F)F)c1` [SJ000523013], the TR-FRET signal worked out at 17.48.

Compound `COc1ccc2nc3cc(Cl)ccc3c(NCCCNCc3ccc(-c4cccc(Cl)c4)o3)c2c1` [SJ000522959] gave a TR-FRET signal of −47.42.

`Clc1ccc2c(NCCCN(Cc3ccccc3)Cc3ccc4[nH]ccc4c3)ccnc2c1` [SJ000520430] displayed a TR-FRET signal of 66.43.

With `CCCN(CCCNc1ccnc2cc(Cl)ccc12)Cc1c[nH]c2ccccc12` [SJ000523007], the TR-FRET signal is 26.23.

`Fc1ccc(CN(CCCNc2ccnc3cc(Cl)ccc23)Cc2ccccc2)cc1F` [SJ000361174] returned a TR-FRET signal of 27.55.

Consider `CCCN(CCCNc1ccnc2cc(C(F)(F)F)ccc12)Cc1ccc(OC)c(F)c1` [SJ000521013], for which the TR-FRET signal came to 21.76.

Regarding `CC(C)Cc1ccc2c(NCCCNCc3ccco3)ccnc2c1` [SJ000311258], the TR-FRET signal amounted to 8.874.

`FC(F)(F)c1cc(-c2ccc3c(NCCCNCc4ccco4)ccnc3c2)cc(C(F)(F)F)c1` [SJ000311270] registered a TR-FRET signal of 59.71.

`CCCN(CCCNc1ccnc2cc(C(F)(F)F)ccc12)Cc1ccccc1C(F)(F)F` [SJ000361259] returned a TR-FRET signal of 4.988.

The compound `Clc1ccc2c(NCCCNCC3CCCCC3)ccnc2c1` [SJ000361102] had a TR-FRET signal of 15.63.

On to `CCCN(CCCNc1ccnc2cc(C(F)(F)F)ccc12)Cc1ccco1` [SJ000361265], for which the TR-FRET signal is listed as 24.11.

In turn, `CCCN(CCCNc1ccnc2cc(Cl)ccc12)CC(C)C` [SJ000357568] returned a TR-FRET signal of 11.45.

`CCCN(CCCNc1ccnc2cc(Cl)ccc12)Cc1cc(F)cc(F)c1O` [SJ000357597]: the TR-FRET signal worked out at 15.96.

The compound `CCCN(CCCNc1ccnc2cc(C(F)(F)F)ccc12)Cc1cccc(OC)c1O` [SJ000361260] came in with a TR-FRET signal of 15.49.

For the compound `CCCN(CCCNc1c2ccc(Cl)cc2nc2ccc(OC)cc12)Cc1cc2ccccc2nc1Cl` [SJ000522737], the TR-FRET signal is −83.74.

Take `CCCN(CCCNc1c2ccc(Cl)cc2nc2ccc(OC)cc12)Cc1cc(F)ccc1OC` [SJ000520931]: the TR-FRET signal was 1.847.

`CC(CCN(CCCNc1ccnc2cc(Cl)ccc12)Cc1ccccc1)c1ccccc1` (centres unmarked) [SJ000311184] gave a TR-FRET signal of 17.35.
